This is an account of results in publication PMC10128108 (RSC Advances, 2023).

SMILES strings stand for the structures. “Also recorded” adds a separate entry of the source.

Series [1] has as its system HepG-2 liver cancer cell line. The experiment in a line: MTT antiproliferative assay, HepG-2. The note with it: for IC50: Homo sapiens, HepG2, read-out: IC50 against HepG-2; for SI (selectivity index), HepG-2: relative to normal WI-38 cells. A general note: Formazan colour is commonly taken as a measure of viable cells.
Series [2] has as its system HCT-116 colorectal cancer cell line. The experiment in a line: MTT antiproliferative assay, HCT-116. As to conditions: for IC50: Homo sapiens, HCT-116, read-out: IC50 against HCT-116; for SI (selectivity index), HCT-116: relative to normal WI-38 cells.
In series [3] the test system is human lung fibroblasts (WI-38) normal cells. Nature of the series: MTT cytotoxicity assay, normal WI-38 cells. It is filed as cell-based. The note with it: WI-38, read-out: IC50 against WI-38.
In series [4] the test system is MCF-7 breast cancer cell line. Nature of the series: MTT antiproliferative assay, MCF-7. The note with it: for IC50: Homo sapiens, MCF7, read-out: IC50 against MCF-7; for SI (selectivity index), MCF-7: relative to normal WI-38 cells.
The subject of series [5] is HepG-2 cells. The experiment in a line: Annexin V-FITC/PI apoptosis assay. It is filed as cell-based, human.
In a further series the test system is caspase-3. The experiment in a line: Caspase-3 level, ELISA in HepG-2. The note with it: for Casp-3: HepG-2, 24 h, 5a at 3.42 μM. It is filed as cell-based, human. A general note: In an ELISA, binding on a coated surface is turned into a signal by an enzyme label.
A further series concerns Bax. The experiment in a line: Bax level, ELISA in HepG-2. It is filed as cell-based, human. The note with it: for Bax: HepG-2, 24 h, 5a at 3.42 μM; for Bax/Bcl-2: ratio of the two levels, HepG-2.
The test system of a further series is Bcl-2. Nature of the series: Bcl-2 level, ELISA in HepG-2. As to conditions: for Bcl-2: HepG-2, 24 h, 5a at 3.42 μM. The format is cell-based, human.
The test system of series [6] is HepG-2 cells. The experiment in a line: Cell cycle analysis. The note with it: 24 h. The format is cell-based, human.
In a further series the target is c-Met kinase (Homo sapiens, UniProt P08581). Nature of the series: c-Met kinase inhibitory assay.
Chain of c-Met kinase (P08581 25-1390): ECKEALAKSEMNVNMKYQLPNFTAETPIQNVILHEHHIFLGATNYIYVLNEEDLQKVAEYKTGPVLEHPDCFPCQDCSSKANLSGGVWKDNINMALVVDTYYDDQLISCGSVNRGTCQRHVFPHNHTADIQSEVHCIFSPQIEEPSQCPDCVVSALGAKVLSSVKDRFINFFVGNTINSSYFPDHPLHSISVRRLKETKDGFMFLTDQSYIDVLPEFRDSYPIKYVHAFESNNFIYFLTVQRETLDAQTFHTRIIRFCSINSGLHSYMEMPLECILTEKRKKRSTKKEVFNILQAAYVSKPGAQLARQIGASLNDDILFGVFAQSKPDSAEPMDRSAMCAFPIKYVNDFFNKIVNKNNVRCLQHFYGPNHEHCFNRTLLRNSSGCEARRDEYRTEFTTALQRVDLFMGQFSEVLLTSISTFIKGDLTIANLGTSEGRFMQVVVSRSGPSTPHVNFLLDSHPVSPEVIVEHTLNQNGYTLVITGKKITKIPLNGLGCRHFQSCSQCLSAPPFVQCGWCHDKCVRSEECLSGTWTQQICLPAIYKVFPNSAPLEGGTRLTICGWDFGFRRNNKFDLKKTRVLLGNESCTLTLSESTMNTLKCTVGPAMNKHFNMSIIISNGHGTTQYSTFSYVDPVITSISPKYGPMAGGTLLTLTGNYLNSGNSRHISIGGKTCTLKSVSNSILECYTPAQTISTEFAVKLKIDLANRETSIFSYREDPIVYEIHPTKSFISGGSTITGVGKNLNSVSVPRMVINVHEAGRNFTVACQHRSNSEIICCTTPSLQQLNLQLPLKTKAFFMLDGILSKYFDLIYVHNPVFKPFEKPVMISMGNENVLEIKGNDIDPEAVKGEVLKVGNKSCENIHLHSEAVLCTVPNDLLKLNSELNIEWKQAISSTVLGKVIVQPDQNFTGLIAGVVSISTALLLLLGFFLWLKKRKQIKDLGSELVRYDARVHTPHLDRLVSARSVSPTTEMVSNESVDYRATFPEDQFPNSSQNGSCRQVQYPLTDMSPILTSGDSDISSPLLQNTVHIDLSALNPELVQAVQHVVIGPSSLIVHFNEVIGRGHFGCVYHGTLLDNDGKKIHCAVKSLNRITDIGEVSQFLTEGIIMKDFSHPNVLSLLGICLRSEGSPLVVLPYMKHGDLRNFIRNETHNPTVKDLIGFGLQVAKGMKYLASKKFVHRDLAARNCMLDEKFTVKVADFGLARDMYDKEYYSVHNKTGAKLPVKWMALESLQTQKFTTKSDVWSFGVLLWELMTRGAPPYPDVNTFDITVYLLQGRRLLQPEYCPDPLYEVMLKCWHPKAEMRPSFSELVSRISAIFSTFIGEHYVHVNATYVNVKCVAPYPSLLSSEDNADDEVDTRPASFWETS
A further series deals with p53. Nature of the series: p53 level, ELISA in HepG-2. The format is cell-based, human.
[7] abbreviates: with respect to untreated HepG-2 cells.
[8] abbreviates: HepG-2, IC50 concentration (3.42 μM).

A word on the IC50: it is the midpoint of a concentration-inhibition curve. Regarding `O=c1[nH]cc(F)c(=O)[nH]1` [5-Fluorouracil, reference compound], in [1], the IC50 stood at 2.87 ± 0.15 µM and the “SI (selectivity index), HepG-2” value was 27.77. For the same compound, in [2], the half-inhibitory concentration (IC50) was found to be 5.26 ± 0.31 µM and the “SI (selectivity index), HCT-116” value was 15.15. The IC50 in [3] amounted to 79.7 ± 0.64 µM. For the same compound, in [4], the IC50 turned out to be 3.58 ± 0.45 µM and the “SI (selectivity index), MCF-7” value is recorded as 22.26.

On to `Cc1ccc(S(=O)(=O)n2nc(C)c3c(-c4ccccc4)c(C#N)c(=S)[nH]c32)cc1` [Compound 5a, 3-Methyl-4-phenyl-6-thioxo-1-tosyl-6,7-dihydro-1H-pyrazolo[3,4-b]pyridine-5-carbonitrile], for which, in the series on HepG-2 cells [5] (HepG-2, 3.42 μM, 24 h), the “Apoptosis Early” value amounted to 24.63%, the “Apoptosis Late” value is listed as 16.28% and the Necrosis is reported as 6.24%. Moreover, in the series with HepG-2 cells [5] (setting [7]), the “fold increase of early apoptotic cells” value is on record as “about 63 folds” and the “fold increase of late apoptotic cells” value was approximately 116 folds. Further, the Casp-3 with caspase-3 was 42.60 ± 0.10 ng/mL. The “fold upregulation of caspase-3” value in the series on caspase-3 (vs untreated HepG-2 cells) came to 23.8 folds. Also, in [1], the IC50 was 3.42 ± 1.31 µM and the “SI (selectivity index), HepG-2” value stood at 23.52. For the same compound, the “fold more potent than erlotinib against HepG-2” value in [1] (ratio of IC50 values) is reported as “approximately 2.4 fold”. In the series on Bax, the Bax was 211.40 ± 0.25 pg/mL and the Bax/Bcl-2 is listed as 101.14. Besides, in the series on Bax (vs untreated HepG-2 cells), the “fold increase of Bax level” value is approximately 5.4 folds and the “fold increase of Bax/Bcl-2 ratio” value was 21 times. Further, in [2], the IC50 came out at 6.27 ± 1.15 µM and the “SI (selectivity index), HCT-116” value was 12.83. Besides, the Bcl-2 in the series with Bcl-2 came out at 2.09 ± 0.15 ng/mL. Further, the “fold reduction of Bcl-2 level” value in the series with Bcl-2 (vs untreated HepG-2 cells) is on record as approximately 3.9 folds. For the same compound, the IC50 in series [3] was 80.46 ± 0.33 µM. For the same compound, the “cell cycle arrest phase” value in the series with HepG-2 cells [6] (HepG-2, 3.42 μM) is “arrested the cell cycle at the G1/S phase; also recorded: cell cycle arrest at the G1/S phase”. In the series with HepG-2 cells [6] (setting [8]), the “percentage of cells in G0–G1 phase” value was found to be 51.93%, the “percentage of cells in G2/M phase” value is 3.89% and the “percentage of cells in S phase” value was determined as 44.18%. Besides, half-maximal inhibition against c-Met kinase (IC50) required 0.00427 ± 0.00031 µM. The compound also came in with a p53 in the series with p53 (HepG-2, 24 h, 5a at 3.42 μM) of 825.22 ± 0.40 pg/mL. Moreover, the “fold upregulation of p53” value in the series on p53 (vs untreated HepG-2 cells) was 6.9 folds. Besides, in [4], the IC50 came to 5.25 ± 1.04 µM and the “SI (selectivity index), MCF-7” value was 15.32.

As for `Cc1ccc(S(=O)(=O)n2nc(C)c3c(-c4ccc(Cl)cc4)c(C#N)c(=S)[nH]c32)cc1` [Compound 5b, 4-(4-Chlorophenyl)-3-methyl-6-thioxo-1-tosyl-6,7-dihydro-1H-pyrazolo[3,4-b]pyridine-5-carbonitrile], the IC50 was determined as 3.56 ± 1.5 µM in series [1]; 9.21 ± 0.02 µM in [2]; 85.1 ± 0.32 µM in series [3]; 0.00795 ± 0.00017 µM at c-Met kinase; 6.82 ± 1.1 µM in [4]. The “fold more potent than erlotinib against HepG-2” value in [1] (ratio of IC50 values) was “approximately 2.4 fold”. Besides, the “SI (selectivity index), HepG-2” value in series [1] worked out at 23.90. In addition, in [2], the “SI (selectivity index), HCT-116” value turned out to be 9.23. In addition, the “SI (selectivity index), MCF-7” value in series [4] stood at 12.47.

`Cc1ccc(S(=O)(=O)n2nc(C)c3c(-c4ccccc4)c4c(N)c(C(N)=O)sc4nc32)cc1` [Compound 8a, 5-Amino-3-methyl-4-phenyl-1-tosyl-1H-pyrazolo[3,4-b]thieno[3,2-e]pyridine-6-carboxamide]: the IC50 in series [1] was found to be 30.58 ± 0.01 µM; in series [2] it was 47.38 ± 0.11 µM; in series [4] it was 43.02 ± 0.24 µM.

Consider `CC(=O)c1sc2nc3c(c(C)nn3S(=O)(=O)c3ccc(C)cc3)c(-c3ccccc3)c2c1N` [Compound 8b, 1-(5-Amino-3-methyl-4-phenyl-1-tosyl-1H-pyrazolo[3,4-b]thieno[3,2-e]pyridin-6-yl)ethan-1-one], for which the IC50 in [1] was determined as 52.1 ± 0.71 µM; in series [2], 67.84 ± 0.02 µM; in series [4] it was 60.23 ± 0.17 µM.

`Cc1ccc(S(=O)(=O)n2nc(C)c3c(-c4ccc(Cl)cc4)c4c(N)c(C#N)sc4nc32)cc1` [Compound 8c, 5-Amino-4-(4-chlorophenyl)-3-methyl-1-tosyl-1H-pyrazolo[3,4-b]thieno[3,2-e]pyridine-6-carbonitrile]: the IC50 came to 25.4 ± 0.5 µM in series [1], 41.77 ± 0.4 µM in [2] and 36.25 ± 0.13 µM in series [4].

As for `CCOC(=O)c1sc2nc3c(c(C)nn3S(=O)(=O)c3ccc(C)cc3)c(-c3ccc(Cl)cc3)c2c1N` [Compound 8d, Ethyl 5-amino-4-(4-chlorophenyl)-3-methyl-1-tosyl-1H-pyrazolo[3,4-b]thieno[3,2-e]pyridine-6-carboxylate], the IC50 in series [1] is 23.12 ± 0.08 µM; in series [2], 38.11 ± 0.3 µM; in [4], 32.14 ± 0.19 µM.

`CC(=O)c1sc2nc3c(c(C)nn3S(=O)(=O)c3ccc(C)cc3)c(-c3ccc(Cl)cc3)c2c1N` [Compound 8e, 1-(5-Amino-4-(4-chlorophenyl)-3-methyl-1-tosyl-1H-pyrazolo[3,4-b]thieno[3,2-e]pyridin-6-yl)ethan-1-one]: the IC50 in series [1] was 12.31 ± 0.1 µM; in series [2], 18.2 ± 0.62 µM; in series [4], 14.2 ± 0.33 µM.

Consider `Cc1ccc(S(=O)(=O)n2nc(C)c3c(-c4ccc(Cl)cc4)c4c(N)c(C(=O)O)sc4nc32)cc1` [Compound 8f, 5-Amino-4-(4-chlorophenyl)-3-methyl-1-tosyl-1H-pyrazolo[3,4-b]thieno[3,2-e]pyridine-6-carboxylic acid], for which the IC50 was 15.4 ± 0.3 µM in series [1], 18.86 ± 0.12 µM in [2] and 19.3 ± 0.45 µM in series [4].

Take `Cc1ccc(S(=O)(=O)n2nc(C)c3sc(=S)n(C)c32)cc1` [Compound 10a, 3,6-Dimethyl-1-tosyl-1,6-dihydro-5H-pyrazolo[3,4-d]thiazole-5-thione]: the IC50 in series [1] was determined as 10.2 ± 0.15 µM; in series [2], 17.2 ± 0.37 µM; in series [4], 13.7 ± 0.7 µM.

`Cc1ccc(S(=O)(=O)n2nc(C)c3sc(=S)n(-c4ccccc4)c32)cc1` [Compound 10b, 3-Methyl-6-phenyl-1-tosyl-1H-pyrazolo[3,4-d]thiazole-5(6H)-thione]: in series [1], the IC50 was found to be 6.75 ± 0.62 µM and the “SI (selectivity index), HepG-2” value is reported as 12.65. Further, in series [1] (ratio of IC50 values), the “fold less potent than 5-FU against HepG-2” value was determined as 2.3 fold. For the same compound, in series [2], the IC50 came out at 9.36 ± 0.45 µM and the “SI (selectivity index), HCT-116” value is on record as 9.12. The IC50 in [3] came to 85.41 ± 0.51 µM. In addition, in [4], the IC50 was found to be 8.13 ± 0.4 µM and the “SI (selectivity index), MCF-7” value is recorded as 10.50.

For the compound `C#Cc1cccc(Nc2ncnc3cc(OCCOC)c(OCCOC)cc23)c1` [Erlotinib, reference compound], in the series on caspase-3, the Casp-3 came to 58.41 ± 0.12 ng/mL. In the series with Bax, the Bax turned out to be 200.20 ± 0.25 pg/mL and the Bax/Bcl-2 amounted to 118.84. In addition, in the series on Bcl-2, the Bcl-2 came to 1.69 ± 0.10 ng/mL. In series [3], the IC50 turned out to be 70 ± 1.08 µM.
